Here are results for four molecules from patent US20080213175A1, “Click chemistry-derived cyclic peptidomimetics as integrin markers” (priority 2006, published 2008).

For series [1], the system named is tumor xenograft of either U87MG human glioblastoma or A431 human squamous cell carcinoma. Conditions: mouse, in vivo. On the procedure: PET Studies: In vivo microPET imaging of a tumor-bearing mouse is performed on an anesthetized mouse bearing tumor xenograft of either U87MG human glioblastoma or A431 human squamous cell carcinoma after administration of cyclic peptidomimetic. […] See e.g. FIG. 3-6.

For series [2], the system named is integrin-positive M21 melanoma xenograft. Particulars: integrin-positive M21 melanoma xenograft model; cited from earlier work.
The target in a further series is integrin (Homo sapiens, UniProt P05106+P06756). Particulars: cited from earlier work.
The subject of series [3] is A431 human squamous cell carcinoma model. Conditions: tumor cells integrin negative; cited from earlier work.
For series [4] the following is noted: cited from earlier work.
For series [5], the target named is T1, Integrin αvβ3 expressing U87MG cells (Homo sapiens, UniProt P05106+P06756).
T1 construct: Integrin αvβ3 expressing U87MG cells; endogenous in cells; host or cells: U87MG
The experiment in a line: Cell-based integrin binding competition assay. Particulars: competition with 2 μM fluorescence labeled compound 18, 2 hrs. On the procedure:
Integrin αvβ3 expressing U87MG cells were incubated with a series of concentration of RGD compounds (0-32 μM) in the presence of 2 μM of green fluorescence labeled compound 18 for 2 hrs. After incubation, cells were washed three times to eliminate unbound RGD compounds. Fluorescence readings (RLU) were then taken (excitation at 491 nm, emission at 518 nm, cutoff 515 nm).
The results are consistent with that of surface plasmon resonance assay.

The target in the next series is Integrin αvβ3 (Homo sapiens, UniProt P05106+P06756). The experiment in a line: Surface plasmon resonance (SPR) 'inverse' integrin αvβ3 assay. It is filed as binding. The protocol: Compound 17 was immobilized onto a CM5 chip (Supplier: Biacore. CM5 is a SPR chip with a carboxymethylated dextran covalently attached to a gold surface) via amine coupling. Integrin αvβ3 samples at 25 nM concentration, premixed with a wide range of concentrations of RGD test compound (0˜1000 nm), were flowed through the CM5 chip at 14° C. The interactions between the flowing integrin αvβ3 sample and the surface of the chip were recorded by Biacore sensorgram signals. Flow cell #1 served as blank control and the flow cell #2 were coated with compound 17. After subtraction the blank signal of flow cell #1 from the signal of flow cell #2, the resulting sensorgram signals from each cycle were converted into percentage values. Then the Kd and IC50 values for each RGD compounds were calculated.
On the technique in general: SPR reads the build-up and loss of mass on a sensor chip optically.

[6] abbreviates: SPR, compared with RGDfK, FIG. 1.

SMILES strings stand for the structures.

Consider `N=C(N)NCCC[C@@H]1NC(=O)[C@H](CCCCNC(=O)CCOCCOCCOCCOCCNC(=O)Cn2cc(CCCF)nn2)n2cc(nn2)[C@H](Cc2ccccc2)NC(=O)[C@H](CC(=O)O)NC(=O)CNC1=O` [Compound 2], for which, in series [1], the “renal clearance and liver uptake” value was “favorable renal clearance and very little liver uptake”; the “tumor uptake and retention” value was “good tumor uptake and retention”; the “wash-out rate from muscle and other healthy tissues” value was “fast wash-out rate”.

Regarding `CC([18F])C(=O)NC[C@H]1OC(C(=O)NCCCC[C@@H]2NC(=O)C(Cc3ccccc3)NC(=O)[C@H](CC(=O)O)NC(=O)CNC(=O)[C@H](CCCNC(=N)N)NC2=O)[C@@H](O)C(O)C1O` (stereo partly drawn) [[^18F]galacto-RGD], in series [2], the tumor uptake result was “integrin αvβ3-specific tumor uptake”. For the same molecule, the integrin binding affinity result at integrin is on record as “relatively low integrin binding affinity”. Besides, the “visualization of integrin αvβ3 expression from tumor vasculature” value in series [3] is on record as “sensitive enough for visualization of integrin αvβ3 expression”. Moreover, the “activity accumulation in organs” value in series [4] (both preclinical models and human studies) is “prominent activity accumulation in the liver, kidneys, spleen, and intestines”. In addition, the safety of administration entry in series [4] (healthy volunteers and a limited number of cancer patients) is recorded as “could be safely administered to patients”. Further, in series [4] (human, in vivo), the pharmacokinetic behavior result is given as “unfavorable pharmacokinetic behavior” and the “tumor standard uptake values” was “modest tumor standard uptake values”. Further, in series [4] (initial clinical trials), the “delineation of integrin-positive lesions” value is on record as “able to delineate certain lesions that were integrin-positive with reasonable contrast”.

On to `N=C(N)NCCC[C@@H]1NC(=O)[C@H](CCCCN)n2cc(nn2)[C@H](Cc2ccccc2)NC(=O)[C@H](CC(=O)O)NC(=O)CNC1=O` [Compound 1], for which the potency entry in series [5] is recorded as “very similar in potency”. At Integrin αvβ3 ('inverse' SPR, compound 17 immobilized on CM5 chip, integrin αvβ3 25 nM, 14° C.), the “binding affinity to integrin αvβ3” value is on record as “surprisingly high binding affinity”. Moreover, at Integrin αvβ3 (setting [6]), the IC50 result is on record as “very close to those of RGDfK” and the Kd result was “very close to those of RGDfK”.

Turning to `N=C(N)NCCC[C@@H]1NC(=O)[C@H](CCCCNC(=O)CCN(CCC(=O)NCCCC[C@H]2C(=O)N[C@@H](CCCNC(=N)N)C(=O)NCC(=O)N[C@@H](CC(=O)O)C(=O)N[C@@H](Cc3ccccc3)c3cn2nn3)C(=O)CCOCCOCCOCCOCCNC(=O)Cn2cc(CCCF)nn2)n2cc(nn2)[C@H](Cc2ccccc2)NC(=O)[C@H](CC(=O)O)NC(=O)CNC1=O` [Compound 3], in series [1], the “renal clearance and liver uptake” value was “favorable renal clearance and very little liver uptake”; the “tumor uptake and retention” value is “good tumor uptake and retention”; the “wash-out rate from muscle and other healthy tissues” value is recorded as “fast wash-out rate”.
